These results are taken from patent publication US20070088043A1, “Novel HDAC inhibitors” (ORCHID RESEARCH LABORATORIES LIMITED., priority 2005, published 2007).

For one test, the system named is NCIH 460 cells. The test can be described thus: Anti-cancer screen (MTT), NCIH460. Type of test: cell-based. Conditions: Homo sapiens, NCI-H460, NCIH460 cells, 48 hours, MTT; for GI50: concentration to decrease % growth by 50%; for IC100: concentration to decrease % growth by 100%, read-out: NCIH460 TGI; for LC50: concentration to decrease % growth by 150%. The procedure:
(§1) Experimental drugs are screened for anti-cancer activity in three cell lines for their GI50, TGI and LC50 values (using five concentrations for each compound). The cell lines are maintained in DMEM containing 10% fetal bovine serum. 96 well micro titer plates are inoculated with cells in 100 μL for 24 h at 37° C., 5% CO2, 95% air and 100% relative humidity. 5000 HCT 116 cells/well, 5000 NCIH 460 cells/well and 5000 U251 cells/well are plated. A separate plate with these cell lines is also inoculated to determine cell viability before the addition of the compounds (T0).
(§2) Following 24-hour incubation, experimental drugs are added to the 96 well plates. Each plate contains one of the above cell lines and the following in triplicate: five different concentrations (0.01, 0.1, 1, 10 and 100 μM) of four different compounds, appropriate dilutions of a cytotoxic standard and control (untreated) wells. Compounds are dissolved in DMSO to make 20 mM stock solutions on the day of drug addition and frozen at −20° C. Serial dilutions of these 20 mM stock solutions are made in complete growth medium such that 100 μL of these drug solutions in medium, of final concentrations equaling 0.01, 0.1, 1, 10 and 100 μM can be added to the cells in triplicate. Standard drugs whose anti-cancer activity has been well documented and which are regularly used are doxorubicin and SAHA.
(§3) For To measurement, 24 hours after seeding the cells, 10 μL of 3-(4,5-Dimethyl-2-thiazolyl)-2,5-diphenyl-2H-tetrazolium (MTT) solution per well is added and incubation carried out for 3 hours at 37° C., 5% CO2, 95% air and 100% relative humidity, protected from light. Cells incubated with compounds for 48 hours are treated similarly except with the addition of 20 μL MTT solution per well and a subsequent incubation under the same conditions. After 3 hours of MTT incubation, well contents are aspirated carefully followed by addition of 150 μL DMSO per well. Plates are agitated to ensure solution of the formazan crystals in DMSO and absorbance read at 570 nm. […]

Another test relates to HCT 116 cells. The test can be described thus: Anti-cancer screen (MTT), HCT116. Format: cell-based. Conditions: Homo sapiens, HCT-116, HCT116 cells, 48 hours, MTT; for GI50: concentration to decrease % growth by 50%; for IC100: concentration to decrease % growth by 100%, read-out: HCT116 TGI; for LC50: concentration to decrease % growth by 150%. The method, then: as §1, §2, §3

The subject of the next test is MDAMB231/U251. The test can be described thus: Anti-cancer screen (MTT), MDAMB231/U251. Type of test: cell-based. As to conditions: MDAMB231/U251 cells, 48 hours; for GI50: concentration to decrease % growth by 50%; for IC100: concentration to decrease % growth by 100%, read-out: MDAMB231/U251 TGI; for LC50: concentration to decrease % growth by 150%. The procedure: as §1, §2, §3

Test [1] relates to NCIH460, HCT116, MDAMB231/U251. The test can be described thus: Anti-cancer screen, mean GI50 over the cell lines. Format: cell-based. As to conditions: in µM. The procedure:
as §1, §2, §3

Test [2] concerns HDAC (Mouse Liver Extract). The test is described as follows: Histone Deacetylase (HDAC) Inhibition Assay using Boc-Lys (Ac)-AMC Substrate. Type of test: biochemical. Conditions: mouse liver enzyme, NA = No Activity; for HDAC Inhibition 1 μM / HDAC Inhibition 10 μM: in % (unit assumed). The text has this:
HDAC Activitv Screening: Histone Deacetylase (HDAC) Inhibition Assay using Boc-Lys (Ac)-AMC Substrate:
Inhibition of HDAC has been implicated to modulate transcription and to induce apoptosis or differentiation in cancer cells. The fluorometric assay provides a fast and fluorescence based method that eliminates radioactivity, extractions or chromatography, as used in traditional assays. The assay based on two steps. First, the HDAC fluorometric substrate, which comprises an acetylated lysine side chain, is incubated with a sample containing HDAC activity (Mouse Liver Extract). Deacetylation of the substrate sensitizes the substrate, in the second step; treatment with the Trypsin stop solution produces a fluorophore that can be easily analyzed using fluorescence plate reader.
Assay was done in 96 well black microplate and total volume of the assay is 100 ul. Mouse liver enzyme is diluted 1:6 with HDAC buffer. Enzyme cocktail made of 10 ul of diluted enzyme and 30 ul of HDAC buffer. 40 ul of enzyme cocktail dispensed into each well. 10 ul of different concentrations of inhibitor added in to each well, except enzyme control well. Preincubated the plate at 30° C. for 5 minutes. The HDAC reaction is started by adding 50 ul of HDAC substrate (Boc-Lys (Ac)-AMC Substrate) solution. Incubated the plate at 30° C. for 30 minutes. Adding 100 ul of Trypsin stop solution stops the reaction. The plate is incubated again at 30° C. for 20-30 minutes. The release of AMC is monitored by measuring the fluorescence at excitation wavelength of 365 or 360 nm and emission wavelength of 440 or 460 nm. Buffer and substrate alone kept for blank subtraction. (Dennis Wegener et al, Anal. Biochem, 321, 2003, 202-208).

On to `COc1cccc2sc(NC(=O)CN3CCN(C(=O)CCCCCSC(C)=O)CC3)nc12` [Example 21, 2-[4-(6-Thioacetylhexanoyl)piperazin-1-yl]-N-(4-methoxy-1,3-benzothiazol-2-yl)acetamide], for which, in the test on NCIH 460 cells, growth was halved (GI50) at 93 µM; the IC100 was more than 100 µM; the LC50 (as a rule, the concentration that kills 50% of the test population) is more than 100 µM. In the test on HCT 116 cells, the GI50 – broadly, the concentration giving 50% growth inhibition – is 52 µM; the IC100 was more than 100 µM; the LC50 is more than 100 µM. For the same compound, in the test with MDAMB231/U251, it took 38 µM to inhibit growth by half (GI50), the IC100 was more than 100 µM and the LC50 is more than 100 µM. Further, in test [1], the “Mean GI50” value turned out to be 61. Moreover, in test [2], the “HDAC Inhibition 1 μM” value is on record as 82.9, the “HDAC Inhibition 10 μM” value is 96.2 and half-maximal inhibition (IC50) required 0.57 µM.

For `Cc1cccc2sc(NC(=O)CN3CCN(C(=O)CCCCCCC(=O)NOCc4ccccc4)CC3)nc12` [Example 40, 8-{4-[2-(4-Methyl-1,3-benzothiazol-2-ylamino)-2-oxoethyl]piperazin-1-yl}-N-hydroxybenzyl-8-oxo octanamide], in the test on NCIH 460 cells, the GI50 is 24 µM, the IC100 was 85 µM and the LC50 was more than 100 µM. Besides, in the test on HCT 116 cells, it took 4.5 µM to inhibit growth by half (GI50), the IC100 worked out at 32 µM and the LC50 is more than 100 µM. In the test with MDAMB231/U251, the GI50 stood at 0.1 µM, the IC100 stood at 0.5 µM and the LC50 is more than 100 µM. Further, the “Mean GI50” value in test [1] turned out to be 9.5. Moreover, the “HDAC Inhibition 10 μM” value in test [2] is 4.1.

As to `CSCC[C@@H](N)C(=O)NCCCCCC(=O)N1CCN(CC(=O)Nc2nc3ccccc3s2)CC1` [Example 42], the GI50 in the test on NCIH 460 cells was determined as 56 µM; in the test with HCT 116 cells it was 26 µM; with MDAMB231/U251, 99.5 µM. Further, the IC100 in the test on NCIH 460 cells was more than 100 µM; in the test with HCT 116 cells, 78 µM; in the test with MDAMB231/U251 it was more than 100 µM. Also, the LC50 in the test on NCIH 460 cells, in the test on HCT 116 cells and in the test on MDAMB231/U251 was more than 100 µM throughout. Moreover, in test [1], the “Mean GI50” value amounted to 61.

As for `CC(=O)SCCCCC(=O)N1CCN(CC(=O)Nc2nc3ccccc3s2)CC1` [Example 8, 2-[4-(5-Thioacetylpentanoyl)piperazin-1-yl]-N-(1,3-benzothiazol-2-yl)acetamide], in the test on NCIH 460 cells, the GI50 stood at 18 µM, the IC100 is more than 100 µM and the LC50 was more than 100 µM. Moreover, in the test with HCT 116 cells, growth was halved (GI50) at 7 µM, the IC100 is 80 µM and the LC50 was more than 100 µM. Also, in the test on MDAMB231/U251, the GI50 was more than 100 µM, the IC100 is more than 100 µM and the LC50 was more than 100 µM. Besides, the “Mean GI50” value in test [1] worked out at 12.50. Also, in test [2], the “HDAC Inhibition 1 μM” value is 31.41 and the “HDAC Inhibition 10 μM” value is listed as 69.85.

For the compound `CC(=O)ON(C(C)=O)C(=O)CCCCCCC(=O)N1CCN(CC(=O)Nc2nc3ccc(C)cc3s2)CC1` [Example 38], in the test with NCIH 460 cells, the GI50 worked out at 40 µM, the IC100 is more than 100 µM and the LC50 is more than 100 µM. Also, in the test on HCT 116 cells, the GI50 is 25 µM, the IC100 is 88 µM and the LC50 is more than 100 µM. Further, in the test on MDAMB231/U251, the GI50 turned out to be 0.4 µM, the IC100 came to 30 µM and the LC50 was more than 100 µM. Further, the “Mean GI50” value in test [1] was more than 100. In test [2], the “HDAC Inhibition 1 μM” value is 37.83 and the “HDAC Inhibition 10 μM” value came to 84.23.

In the case of `O=C(CCCCCCC(=O)N1CCN(CC(=O)Nc2cccc(F)c2)CC1)NO` [Example 36, 8-{4-[2-(3-Fluorophenyl-2-ylamino)-2-oxoethyl]piperazin-1-yl}-N-hydroxy-8-oxo octanamide], in the test with NCIH 460 cells, the GI50 is 52 µM, the IC100 is more than 100 µM and the median lethal concentration (LC50) is more than 100 µM. In the test on HCT 116 cells, the GI50 worked out at 40 µM, the IC100 was 82 µM and the LC50 was more than 100 µM. Moreover, in the test with MDAMB231/U251, growth was halved (GI50) at 27 µM, the IC100 came out at 62 µM and the LC50 is more than 100 µM. Further, the “Mean GI50” value in test [1] is 39.67. In addition, in test [2], the “HDAC Inhibition 1 μM” value is listed as 98.2; the “HDAC Inhibition 10 μM” value was 72.99; the 50% inhibitory concentration (IC50) – broadly, the concentration that inhibits the measured activity by half – came to 0.95 µM.

Consider `CC(=O)SCCCCC(=O)N1CCN(CC(=O)Nc2nc3c(C)cccc3s2)CC1` [Example 13, 2-[4-(5-Thioacetylpentanoyl)piperazin-1-yl]-N-(4-methyl-1,3-benzothiazol-2-yl)acetamide], for which, in the test with NCIH 460 cells, the GI50 was more than 100 µM, the IC100 was more than 100 µM and the LC50 is more than 100 µM. In addition, in the test with HCT 116 cells, halving of growth (GI50) required 6 µM, the IC100 is more than 100 µM and the median lethal concentration (LC50) is more than 100 µM. Further, in the test on MDAMB231/U251, it took 6 µM to inhibit growth by half (GI50), the IC100 stood at 30 µM and the LC50 is more than 100 µM. Besides, the “Mean GI50” value in test [1] is more than 100. Also, in test [2], the “HDAC Inhibition 1 μM” value stood at 26.73 and the “HDAC Inhibition 10 μM” value is recorded as 55.56.

For the compound `CC(=O)SCCCCC(=O)N1CCN(CC(=O)Nc2nccs2)CC1` [Example 7, 2-[4-(5-Thioacetylpentanoyl)piperazin-1-yl]-N-(1,3-thiozole-2-yl)acetamide], in the test on NCIH 460 cells, the GI50 is 50 µM, the IC100 was determined as 88 µM and the LC50 was more than 100 µM. In the test with HCT 116 cells, the GI50 is 85 µM, the IC100 was more than 100 µM and the LC50 is more than 100 µM. Besides, in the test on MDAMB231/U251, the GI50 was more than 100 µM, the IC100 was more than 100 µM and the LC50 was more than 100 µM. In test [1], the “Mean GI50” value is 67.50. In addition, in test [2], the “HDAC Inhibition 1 μM” value was 27.76 and the “HDAC Inhibition 10 μM” value stood at 45.96.

Consider `COc1cccc2sc(NC(=O)CN3CCN(C(=O)CCCCCN(OCc4ccccc4)C(C)=O)CC3)nc12` [Example 28, N-4-methoxy-1,3-benzothiazol-2-yl-2-{6-[6 (N-acetyl-O-benzyl)hexanoyl]piperazin-1-yl}acetamide], for which, in the test on NCIH 460 cells, the GI50 worked out at 21 µM, the IC100 is more than 100 µM and the LC50 was more than 100 µM. Further, in the test on HCT 116 cells, the GI50 is 5.5 µM, the IC100 is 58 µM and the LC50 is more than 100 µM. Further, in the test on MDAMB231/U251, the GI50 amounted to 0.08 µM, the IC100 turned out to be 9 µM and the LC50 is more than 100 µM. Besides, the “Mean GI50” value in test [1] is given as 8.86.

As to `Cc1cccc2sc(NC(=O)CN3CCN(C(=O)CCCCCNO)CC3)nc12` [Example 27], in the test with NCIH 460 cells, the GI50 was determined as 8 µM, the IC100 is more than 100 µM and the LC50 was more than 100 µM. Moreover, in the test on HCT 116 cells, the GI50 was determined as 8 µM, the IC100 was more than 100 µM and the LC50 is more than 100 µM. In the test on MDAMB231/U251, it took 28 µM to inhibit growth by half (GI50), the IC100 was 80 µM and the LC50 is more than 100 µM. Further, the “Mean GI50” value in test [1] came to 14.70.
